14 molecules from ChEMBL document CHEMBL4145579, “Plasmodial Kinase Inhibitors: License to Cure?” (J Med Chem, 2018) can be followed below.

In assay [1] the test system is Plasmodium falciparum. Description: Antiplasmodial activity against chloroquine-sensitive Plasmodium falciparum D6 infected in human red blood cells preincubated for 24 hrs followed by [3H]-hypoxanthine addition measured after 18 hrs by scintillation counting. The format is functional, organism-based.
Assay [2] has as its system Plasmodium falciparum. Description: Antiplasmodial activity against mature gametocytes of Plasmodium falciparum 3D7 […]. The format is functional, organism-based.
The nature of assay [3]: Inhibition of Plasmodium falciparum PKG.
In assay [4] the target is T1, Calcium-dependent protein kinase 1 (Plasmodium falciparum, UniProt P62344). Nature of the assay: Inhibition of Plasmodium falciparum recombinant CDPK1 expressed in Escherichia coli expression system after 1 hr in presence of [gamma33P]ATP by scintillation proximity assay.
T1 sequence (P62344 whole entry): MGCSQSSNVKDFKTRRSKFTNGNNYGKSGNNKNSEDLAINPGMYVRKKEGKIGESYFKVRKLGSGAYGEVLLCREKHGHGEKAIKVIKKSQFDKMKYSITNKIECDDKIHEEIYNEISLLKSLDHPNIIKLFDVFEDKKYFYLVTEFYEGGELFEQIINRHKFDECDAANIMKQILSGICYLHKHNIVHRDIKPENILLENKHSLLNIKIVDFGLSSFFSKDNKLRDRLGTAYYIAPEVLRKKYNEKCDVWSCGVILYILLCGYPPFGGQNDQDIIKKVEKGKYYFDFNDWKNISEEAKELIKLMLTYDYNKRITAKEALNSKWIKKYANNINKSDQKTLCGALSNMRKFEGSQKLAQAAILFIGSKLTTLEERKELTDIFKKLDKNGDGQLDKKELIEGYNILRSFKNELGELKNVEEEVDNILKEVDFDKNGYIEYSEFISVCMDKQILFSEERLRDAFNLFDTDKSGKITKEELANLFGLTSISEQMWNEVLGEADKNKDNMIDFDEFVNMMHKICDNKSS
Assay [5] concerns the target Cyclin-dependent kinase 5/CDK5 activator 1 (Homo sapiens) (UniProt Q00535+Q15078). Description: Inhibition of recombinant human N-terminal His6-tagged full length CDK5/recombinant human N-terminal GST-tagged full length p25 at 10 uM. The assay is classed as protein-complex assay.
Assay [6] concerns the target T1, Calcium-dependent protein kinase 1. Description: Inhibition of Plasmodium falciparum recombinant His-tagged CDPK1 expressed in Escherichia coli BL21(DE3) after 1 hr in presence of [gamma33P]ATP by scintillation proximity assay.
The target of assay [7] is Fibroblast growth factor receptor 1 (Homo sapiens) (UniProt P11362). Description: Inhibition of recombinant human N-terminal GST-tagged FGFR1 (456 to 765 residues) expressed in Escherichia coli at 10 uM.
Chain of Fibroblast growth factor receptor 1 (Homo sapiens) (P11362 22-822 limits assumed): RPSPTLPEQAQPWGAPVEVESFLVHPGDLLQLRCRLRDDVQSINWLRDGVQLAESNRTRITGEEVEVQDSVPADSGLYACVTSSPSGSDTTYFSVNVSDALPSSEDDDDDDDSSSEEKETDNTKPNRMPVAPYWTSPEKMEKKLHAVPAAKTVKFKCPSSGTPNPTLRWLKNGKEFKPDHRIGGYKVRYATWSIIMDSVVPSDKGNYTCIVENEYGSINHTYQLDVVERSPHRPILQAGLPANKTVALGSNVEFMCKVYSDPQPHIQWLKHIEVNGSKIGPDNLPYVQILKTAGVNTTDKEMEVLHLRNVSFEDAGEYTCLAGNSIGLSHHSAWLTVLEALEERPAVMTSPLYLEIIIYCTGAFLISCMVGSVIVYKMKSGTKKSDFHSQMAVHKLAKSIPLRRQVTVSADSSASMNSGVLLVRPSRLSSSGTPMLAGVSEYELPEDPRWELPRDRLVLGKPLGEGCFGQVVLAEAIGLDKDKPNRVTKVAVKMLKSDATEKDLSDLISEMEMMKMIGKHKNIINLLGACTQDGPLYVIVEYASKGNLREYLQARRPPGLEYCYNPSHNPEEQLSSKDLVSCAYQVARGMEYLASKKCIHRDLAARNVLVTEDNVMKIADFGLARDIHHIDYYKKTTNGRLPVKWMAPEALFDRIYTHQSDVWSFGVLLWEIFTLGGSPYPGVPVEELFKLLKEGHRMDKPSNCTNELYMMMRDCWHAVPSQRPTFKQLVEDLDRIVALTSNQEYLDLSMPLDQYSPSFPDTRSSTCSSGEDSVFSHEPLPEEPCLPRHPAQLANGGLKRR
The target of assay [8] is Mitogen-activated protein kinase 14 (Homo sapiens) (UniProt Q16539). Description: Inhibition of recombinant human N-terminal GST-tagged full length SAPK2alpha expressed in Escherichia coli at 10 uM.
Chain of Mitogen-activated protein kinase 14 (Homo sapiens) (Q16539 whole entry): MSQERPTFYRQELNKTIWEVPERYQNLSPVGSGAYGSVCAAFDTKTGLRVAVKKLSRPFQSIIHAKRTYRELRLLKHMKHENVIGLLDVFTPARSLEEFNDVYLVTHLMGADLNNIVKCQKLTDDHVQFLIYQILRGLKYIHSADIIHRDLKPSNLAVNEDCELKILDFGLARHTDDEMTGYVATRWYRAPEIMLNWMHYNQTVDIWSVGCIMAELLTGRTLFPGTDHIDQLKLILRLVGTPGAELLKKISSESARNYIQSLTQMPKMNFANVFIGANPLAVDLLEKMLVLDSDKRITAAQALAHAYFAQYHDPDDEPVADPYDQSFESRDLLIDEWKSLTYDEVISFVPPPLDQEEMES
Assay [9] can be described thus: Inhibition of Plasmodium falciparum recombinant expressed in Toxoplasma gondii after 60 mins in presence of [33P]ATP by scintillation counting.
The subject of assay [10] is Plasmodium falciparum. Description: Antiplasmodial activity against Plasmodium falciparum NF54 gametocyte form infected in human erythrocytes by scintillation counting-based [3H]-hypoxanthine incorporation assay. The format is functional, organism-based.
The subject of assay [11] is Plasmodium falciparum. Description: Antiplasmodial activity against chloroquine-sensitive Plasmodium falciparum Dd2 gametocyte form infected in human erythrocytes by scintillation counting-based [3H]-hypoxanthine incorporation assay. The assay is classed as functional, organism-based.
In assay [12] the test system is Plasmodium falciparum. Nature of the assay: Antiplasmodial activity against Plasmodium falciparum NF54. The format is functional, organism-based.
Assay [13] is described as follows: Inhibition of Plasmodium falciparum 3D7 6xHis-tagged PI3K helica domain expressed in Escherichia coli by Western blot analysis.
Assay [14] deals with Plasmodium berghei. Description: Antiplasmodial activity Plasmodium berghei infected in ip dosed mouse. The assay is classed as functional.
Assay [15] in a line: Inhibition of recombinant Plasmodium vivax PI4K.
The subject of assay [16] is Plasmodium berghei. Nature of the assay: Antiplasmodial activity Plasmodium berghei infected in po dosed mouse. The assay is classed as functional.
Assay [17] relates to Plasmodium falciparum. Nature of the assay: Inhibition of Plasmodium falciparum NF54 exflagellation measured on day 15 post parasite growth. The assay is classed as functional, organism-based. The conditions noted are these: NF54, 360 h.
Assay [18] relates to Plasmodium falciparum. Description: Antiplasmodial activity against Plasmodium falciparum FCB infected in human erythrocytes after 30 mins by FACS analysis. The assay is classed as functional, organism-based. The settings on record: 0.5 h.
Assay [19] addresses T2, Calcium-dependent protein kinase 4 (Plasmodium falciparum (isolate 3D7), UniProt Q8IBS5).
T2 sequence (Q8IBS5 whole entry): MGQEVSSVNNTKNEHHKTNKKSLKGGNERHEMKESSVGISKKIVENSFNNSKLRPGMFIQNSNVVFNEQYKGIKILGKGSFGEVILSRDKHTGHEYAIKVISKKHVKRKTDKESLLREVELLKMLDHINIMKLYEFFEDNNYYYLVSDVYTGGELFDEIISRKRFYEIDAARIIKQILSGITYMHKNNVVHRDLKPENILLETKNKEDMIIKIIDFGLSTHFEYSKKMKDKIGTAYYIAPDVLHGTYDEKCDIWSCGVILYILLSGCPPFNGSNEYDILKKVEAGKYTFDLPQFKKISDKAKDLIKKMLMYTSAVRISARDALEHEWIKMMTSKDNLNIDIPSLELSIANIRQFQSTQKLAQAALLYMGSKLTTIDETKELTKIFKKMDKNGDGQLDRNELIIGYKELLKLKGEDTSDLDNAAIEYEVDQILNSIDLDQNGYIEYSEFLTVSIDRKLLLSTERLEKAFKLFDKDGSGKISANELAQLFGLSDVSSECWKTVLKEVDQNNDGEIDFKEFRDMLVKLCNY
Nature of the assay: Inhibition of Plasmodium falciparum His-tagged CDPK4 expressed in Escherichia coli BL21(DE3) using […] as substrate after 10 mins in presence of ATP.

In assay [20] the test system is Plasmodium falciparum. Nature of the assay: Antiplasmodial activity drug-sensitive Plasmodium falciparum 3D7 infected in po dosed humanized SCID mouse assessed as decrease in blood parasitemia administered once daily for 4 days measure on day 7 by flow cytometric method. The format is functional.
The test system of assay [21] is Plasmodium falciparum. Description: Antiplasmodial activity against Plasmodium falciparum infected in CD1 mouse at 100 mg/kg, po bid for 4 days. The format is functional.
In assay [22] the test system is Plasmodium falciparum. Nature of the assay: Antiplasmodial activity against mature gametocytes of Plasmodium falciparum NF54 […] by standard membrane feeding assay. The format is functional, organism-based.

Chain of Cyclin-dependent kinase 5/CDK5 activator 1 (Homo sapiens) (Q00535 whole entry): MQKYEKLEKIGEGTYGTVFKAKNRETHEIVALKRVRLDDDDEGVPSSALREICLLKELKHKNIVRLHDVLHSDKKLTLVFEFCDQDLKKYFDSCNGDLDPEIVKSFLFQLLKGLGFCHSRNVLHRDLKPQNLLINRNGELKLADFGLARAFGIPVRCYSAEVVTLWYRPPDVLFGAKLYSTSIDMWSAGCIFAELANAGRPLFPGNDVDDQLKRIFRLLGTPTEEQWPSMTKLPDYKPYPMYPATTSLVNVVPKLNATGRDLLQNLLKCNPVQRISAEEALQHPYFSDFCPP
Chain of Cyclin-dependent kinase 5/CDK5 activator 1 (Homo sapiens) (Q15078 99-307 partner limits assumed): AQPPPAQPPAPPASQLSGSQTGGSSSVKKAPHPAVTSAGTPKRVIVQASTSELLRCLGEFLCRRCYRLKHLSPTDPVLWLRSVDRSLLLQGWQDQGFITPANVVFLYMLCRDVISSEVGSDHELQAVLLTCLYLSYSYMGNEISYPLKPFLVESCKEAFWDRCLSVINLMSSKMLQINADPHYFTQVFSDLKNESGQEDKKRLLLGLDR

The molecule `O=C1Nc2ccc(Br)cc2/C1=C\C(=O)c1ccc(F)cc1` displayed an IC50 with Plasmodium falciparum [1] of more than 14000 nM.

With `CN(C)Cc1ccn2c(-c3ccnc(NCC4CC4)n3)c(-c3cccc(S(C)(=O)=O)c3)nc2c1`, the IC50 in the assay with Plasmodium falciparum [2] was 102 nM; in assay [3], 0.13 nM.

Regarding `N[C@H]1CC[C@H](Nc2nc(Nc3ccc(C(=O)N4CCCCC4)cc3)c3ncn(-c4cccc(F)c4)c3n2)CC1` [PURFALCAMINE], the IC50 in assay [4] lay in the range of 13 to 17 nM.

With `CCCNc1ccc2ncc(-c3cccc(O)c3)n2n1`, the inhibition in assay [5] stood at 89%. Also, the inhibitory constant (Ki) in [6] is 37 nM.

Consider `Cc1ccc(C(=O)c2c(N)c(C(N)=O)c3ccccn23)cc1`, for which the results for the inhibition in assay [7] and in assay [8] were 54% and 75%, respectively. In addition, the inhibitory constant (Ki) in assay [6] worked out at 262 nM.

For the molecule `CN1CCC(c2cc(-c3ccncc3)c(-c3ccc(F)cc3)[nH]2)CC1`, the IC50 in the assay with Plasmodium falciparum [2] turned out to be 490 nM; in [9], 3.5 nM; in the assay with Plasmodium falciparum [10], 490 nM; with Plasmodium falciparum [11], 1300 nM.

For `C[C@H]1[C@@H](O)O[C@@H]2O[C@@]3(C)CC[C@H]4[C@H](C)CC[C@@H]1[C@@]24OO3` [ARTENIMOL], the IC50 in the assay with Plasmodium falciparum [12] was 3 nM; in [13], 4.1 nM. Further, the ED50 with Plasmodium berghei [14] stood at 1.95 mg/kg.

Turning to `COc1cc(-c2cc(-c3ccc(S(C)(=O)=O)cc3)cnc2N)ccc1O`, in assay [15], the IC50 amounted to 10 nM. The same molecule registered an ED90 in the assay with Plasmodium berghei [16] of 43.7 mg/kg.

Take `CCOc1ccc2cc(-c3nn(CC4CCN(C)CC4)c4ncnc(N)c34)ccc2c1`: the EC50 in the assay on Plasmodium falciparum [12] came out at 8000 nM; in the assay with Plasmodium falciparum [17] it was 47 nM.

Turning to `O=c1cc(N2CCOCC2)oc2c(-c3ccccc3)cccc12` [LY-294002], the IC50 in the assay with Plasmodium falciparum [12] came out at 3000 nM; in assay [13], 25000 nM.

`CN1CCN(CCCN2c3ccccc3Sc3ccc(C(F)(F)F)cc32)CC1` [TRIFLUOPERAZINE]: it took 1900 nM to reach a half-maximal effect in the assay on Plasmodium falciparum [18] (EC50). Further, the Ki in assay [19] amounted to 150000 nM.

`CS(=O)(=O)c1ccc(-c2cnc(N)c(-c3ccc(C(F)(F)F)nc3)c2)cc1` [MMV-048]: the IC50 in [15] is 3.4 nM. In addition, the ED90 in the assay with Plasmodium berghei [16] is 0.8 mg/kg; with Plasmodium falciparum [20], 0.57 mg/kg.

For the molecule `Cc1cn2c(-c3ccnc(NCC4CC4)n3)c(-c3ccc(F)c(NS(C)(=O)=O)c3)nc2cc1CN(C)C`, the Activity with Plasmodium falciparum [21] is listed as 99.9%. In addition, the IC50 stood at 2.1 nM with Plasmodium falciparum [2], 41 nM with Plasmodium falciparum [22] and 0.16 nM in assay [3].

Consider `CCOc1ccc2cc(-c3nn(CC4CCNCC4)c4ncnc(N)c34)ccc2c1`, for which the EC50 was determined as 2000 nM in the assay on Plasmodium falciparum [12] and 35 nM with Plasmodium falciparum [17].
